The subject of test [1] is Mycobacterium bovis BCG containing pMV361-lux (BCG:361-lux). The test is described as follows: microbe, parasite or virus in culture. The test is classed as cell-based. The settings on record: for MIC: Mycobacterium tuberculosis variant bovis BCG, BCG.
For test [2] the test system is unchanged. Description: microbe, parasite or virus in culture. The test is classed as cell-based. The settings on record: for MBC: Mycobacterium tuberculosis variant bovis BCG, BCG.
The test system is the same in test [3]. The test is described as follows: microbe, parasite or virus in culture. The test is classed as cell-based. The settings on record: Mycobacterium tuberculosis variant bovis BCG, 120 h, read-out: MIC BACTEC.
For test [4], the system named is rBCG:pMH30-lux. Also noted: species or system BCG; BALB/C mice. The settings on record: mouse, in vivo.
Test [5] has as its system rBCG:pMH30-lux. Also noted: species or system BCG; BALB/C mice. The following applies: mouse, in vivo. The source holds these as a separate data set.

≈ marks a conversion by molar mass, not a printed value. Where two headings read alike, the source gives them in different places.

Regarding `NCC[C@H](O)C(=O)N[C@@H]1C[C@H](N)[C@@H](O[C@H]2O[C@H](CN)[C@@H](O)[C@H](O)[C@H]2O)[C@H](O)[C@H]1O[C@H]1O[C@H](CO)[C@@H](O)[C@H](N)[C@H]1O` [Amikacin, amikacin], in test [1], the “similarity in BACTEC and BCG:pMV361-lux assays (susceptibility)” value (“similarity” below) was “comparable”. The MIC in test [1] (24 h) was above 2 µg/mL; in test [1] (48 h), above 2 µg/mL; in test [1] (72 h), 0.5 µg/mL (≈ 0.854 µM); in test [1] (96 h) it was 0.25 µg/mL (≈ 0.427 µM); in test [1] (120 h) it was 0.25 µg/mL (≈ 0.427 µM); in test [3], 0.13 µg/mL (≈ 0.222 µM). For the same molecule, the MBC in test [2] (24 h) is 2 µg/mL (≈ 3.42 µM); in test [2] (48 h) it was 0.5 µg/mL (≈ 0.854 µM); in test [2] (72 h) it was 0.5 µg/mL (≈ 0.854 µM); in test [2] (96 h), 0.25 µg/mL (≈ 0.427 µM); in test [2] (120 h) it was 0.25 µg/mL (≈ 0.427 µM). In the test on rBCG:pMH30-lux [4], the “lux activity in spleens vs untreated control mice” value is reported as “substantially reduced lux activity”.

For the molecule `O=C(O)c1cn(C2CC2)c2cc(N3CCNCC3)c(F)cc2c1=O` [Ciprofloxacin, ciprofloxacin], the “similarity” value in test [1] was “comparable”. Moreover, the MIC in test [1] (24 h) was above 2 µg/mL; in test [1] (48 h) it was above 2 µg/mL; in test [1] (72 h) it was 0.5 µg/mL (≈ 1.51 µM); in test [1] (96 h), 0.5 µg/mL (≈ 1.51 µM); in test [1] (120 h), 0.5 µg/mL (≈ 1.51 µM); in test [3], 0.25 µg/mL (≈ 0.754 µM). For the same molecule, the MBC in test [2] (24 h) is above 2 µg/mL; in test [2] (48 h), above 2 µg/mL; in test [2] (96 h) it was 0.5 µg/mL (≈ 1.51 µM); in test [2] (120 h) it was 0.5 µg/mL (≈ 1.51 µM).

On to `CC[C@H]1OC(=O)[C@H](C)[C@@H](O[C@H]2C[C@@](C)(OC)[C@@H](O)[C@H](C)O2)[C@H](C)[C@@H](O[C@@H]2O[C@H](C)C[C@H](N(C)C)[C@H]2O)[C@](C)(OC)C[C@@H](C)C(=O)[C@H](C)[C@@H](O)[C@]1(C)O` [Clarithromycin, clarithromycin], for which, in test [1], the “similarity” value is given as “comparable”. In addition, the MIC in test [1] (24 h) is above 0.5 µg/mL; in test [1] (48 h), above 0.5 µg/mL; in test [1] (72 h), 0.5 µg/mL (≈ 0.668 µM); in test [1] (96 h), 0.25 µg/mL (≈ 0.334 µM); in test [1] (120 h) it was 0.25 µg/mL (≈ 0.334 µM); in test [3], 0.25 µg/mL (≈ 0.334 µM). For the same molecule, the “MBC value in words” value in test [2] is given as “above the highest concentration tested”. The MBC in test [2] (24 h), in test [2] (48 h), in test [2] (72 h), in test [2] (96 h) and in test [2] (120 h) was above 0.5 µg/mL throughout.

As to `CC[C@@H](CO)NCCN[C@@H](CC)CO` [Ethambutol, ethambutol], in test [1], the “similarity” value is “comparable”. The MIC is above 8 µg/mL in test [1] (24 h); above 8 µg/mL in test [1] (48 h); above 8 µg/mL in test [1] (72 h); 4 µg/mL (≈ 19.6 µM) in test [1] (96 h); 4 µg/mL (≈ 19.6 µM) in test [1] (120 h); 2 µg/mL (≈ 9.79 µM) in test [3]. The “reduced luminescence in spleen vs untreated control” value in the test with rBCG:pMH30-lux [5] was 30%. For the same molecule, in the test on rBCG:pMH30-lux [5], the “total reduction in luminescence in spleen” value amounted to 75%. In addition, the MBC in test [2] (24 h) is above 8 µg/mL; in test [2] (48 h) it was 8 µg/mL (≈ 39.2 µM); in test [2] (72 h) it was 4 to 8 µg/mL (≈ 19.6 to 39.2 µM); in test [2] (96 h), 4 µg/mL (≈ 19.6 µM); in test [2] (120 h), 4 µg/mL (≈ 19.6 µM). In addition, the “lux activity in spleens” value with rBCG:pMH30-lux [4] was “reduced lux activity”.

Take `NNC(=O)c1ccncc1` [Isoniazid, isoniazid]: the MIC in test [1] (24 h) was above 0.5 µg/mL; in test [1] (48 h), above 0.5 µg/mL; in test [1] (72 h) it was above 0.5 µg/mL; in test [1] (96 h), 0.06 µg/mL (≈ 0.438 µM); in test [1] (120 h), 0.06 µg/mL (≈ 0.438 µM); in test [3] it was 0.06 µg/mL (≈ 0.438 µM). For the same molecule, the “reduced luminescence in spleen vs untreated control” value in the test with rBCG:pMH30-lux [5] stood at 50%. Moreover, in the test on rBCG:pMH30-lux [5], the “total reduction in luminescence in spleen” value was determined as 90%. The MBC is above 0.5 µg/mL in test [2] (24 h); 0.13 µg/mL (≈ 0.948 µM) in test [2] (48 h); 0.13 µg/mL (≈ 0.948 µM) in test [2] (72 h); 0.13 µg/mL (≈ 0.948 µM) in test [2] (96 h); 0.13 µg/mL (≈ 0.948 µM) in test [2] (120 h). The “lux activity in spleens” value with rBCG:pMH30-lux [4] was “reduced lux activity”.

Take `CC1COc2c(N3CCN(C)CC3)c(F)cc3c(=O)c(C(=O)O)cn1c23` (centres unmarked) [OFX, ofloxacin]: the “lux activity in spleens vs untreated control mice” value in the test on rBCG:pMH30-lux [4] is recorded as “substantially reduced lux activity”.

As for `CO[C@H]1/C=C/O[C@@]2(C)Oc3c(C)c(O)c4c(O)c(c(/C=N/N5CCN(C)CC5)c(O)c4c3C2=O)NC(=O)/C(C)=C\C=C\[C@H](C)[C@H](O)[C@@H](C)[C@@H](O)[C@@H](C)[C@H](OC(C)=O)[C@@H]1C` [Rifampin, rifampin], in test [1], the “similarity” value was “comparable”. For the same molecule, the MIC in test [1] (24 h) is above 0.25 µg/mL; in test [1] (48 h), above 0.25 µg/mL; in test [1] (72 h) it was above 0.25 µg/mL; in test [1] (96 h), 0.06 µg/mL (≈ 0.0729 µM); in test [1] (120 h) it was 0.06 µg/mL (≈ 0.0729 µM); in test [3], 0.03 µg/mL (≈ 0.0365 µM). Also, the MBC in test [2] (24 h) is above 0.25 µg/mL; in test [2] (48 h), above 0.25 µg/mL; in test [2] (72 h), above 0.25 µg/mL; in test [2] (96 h), 0.13 µg/mL (≈ 0.158 µM); in test [2] (120 h) it was 0.13 µg/mL (≈ 0.158 µM). The “rBCG-lux luminescence in spleens” value with rBCG:pMH30-lux [4] is “reduced rBCG-lux luminescence”.

Take `[H]/N=C(/N)N[C@H]1[C@H](O)[C@@H](O)[C@H](O[C@@H]2O[C@@H](C)[C@](O)(C=O)[C@H]2O[C@@H]2O[C@@H](CO)[C@H](O)[C@@H](O)[C@@H]2NC)[C@@H](N/C(N)=N\[H])[C@@H]1O` [Streptomycin, streptomycin]: in test [1], the “similarity” value is listed as “comparable”. Besides, the MIC is above 2 µg/mL in test [1] (24 h); 1 µg/mL (≈ 1.72 µM) in test [1] (48 h); 0.5 µg/mL (≈ 0.86 µM) in test [1] (72 h); 0.25 µg/mL (≈ 0.43 µM) in test [1] (96 h); 0.25 µg/mL (≈ 0.43 µM) in test [1] (120 h); 0.25 µg/mL (≈ 0.43 µM) in test [3]. The MBC is above 2 µg/mL in test [2] (24 h); 0.5 µg/mL (≈ 0.86 µM) in test [2] (48 h); 0.5 µg/mL (≈ 0.86 µM) in test [2] (72 h); 0.25 µg/mL (≈ 0.43 µM) in test [2] (96 h); 0.25 µg/mL (≈ 0.43 µM) in test [2] (120 h).

The values above are taken from patent US5679515A, “Mycobacterial reporter strains and uses thereof” (PathoGenesis Corporation, priority 1994, dated 1997).
